How the values were obtained:
E. cloacae EB 131 = assay: β-Lactamase inhibition activity against resistant bacteria (MIC of ceftazidime without and with Ia); format: cell-based; settings: Enterobacter cloacae, EB131, enzyme Type 1 Ceph'ase, read-out: MIC, CAZ alone
E. coli EC 225 = assay: as above; format: cell-based; settings: Escherichia coli, EC225, enzyme TEM-5, read-out: MIC, CAZ alone
E. coli EC 228 = assay: as above; format: cell-based; settings: Escherichia coli, EC228, enzyme CAZ-ase, read-out: MIC, CAZ alone
K. pneumoniae KL 141 = assay: as above; format: cell-based; settings: Klebsiella pneumoniae, KL141, enzyme CAZ-ase, read-out: MIC, CAZ alone
K. pneumoniae KL 140 = assay: as above; format: cell-based; settings: Klebsiella pneumoniae, KL140, enzyme CAZ-ase, read-out: MIC, CAZ alone
E. coli EC 227 = assay: as above; format: cell-based; settings: Escherichia coli, EC227, enzyme CAZ-ase, read-out: MIC, CAZ alone
[1] = target: T1, β-Lactamase from Enterobacter cloacae (Enterobacter cloacae, UniProt P05364); assay: β-Lactamase inhibition against isolated (cell free) enzymes, nitrocefin method; format: biochemical; settings: 37° C., 15 min preincubation of enzyme and inhibitor
T1 construct: bacterial β-lactamases isolated from Enterobacter cloacae and Escherichia coli; host or cells: Enterobacter cloacae (enzyme isolated, cell free)
Description: (§1) Moreover, all tested ceftazidime resistant Gram-negative pathogens became susceptible to a combination of ceftazidime and the compounds according to the invention. Thus, these compounds are also very potent β-lactamase inhibitors. The very high activity as β-lactamase inhibitors of the compounds I according to the invention was also observed with isolated bacterial enzymes in the nitrocefin test (R. Reimer, Methodicum Chimicum: Antibiotics, Vitamins and Hormons; F. Korte, M. Goto, eds., Thieme, Stuttgart, 1977, p.11, E. Wasielewski, Arzneimittel, Vol. 4; Chemotherapeutica, Part 1, Verlag Chemie, Weinheim 1972).
(§2) IC50 values were determined in a 1 cm UV cell at 37° C. after a 15 min preincubation period of enzyme and the inhibitor.

[2] = target: T2, Penicillinase from E. coli TEM 1 (Escherichia coli, UniProt P62593); assay: as above; format: biochemical
T2 construct: bacterial β-lactamases isolated from Enterobacter cloacae and Escherichia coli; host or cells: Escherichia coli (enzyme isolated, cell free)
Description: as §1, §2

[3] = Stability in phosphate buffer (half-life of hydrolysis, UV method); format: physicochemical; settings: for half-life: physiological phosphate buffer pH 7.4 and 37° C., UV method
[4] = Oral activity: plasma level and half-life in mice after oral application; format: in vivo; settings: mouse, dose 25 mg per kg, potassium salt
Staph. aureus 25768 = assay: In vitro antibacterial activity, plate test (inhibition diameter); format: cell-based; settings: 10 μg, Difco Nutrient Agar, 18 hrs at 37° C.
Description: (§3) The tests were carried out in sterile polypropylene dishes (diameter 8.5 cm) containing 10 ml of Difco Nutrient Agar. Inhibition was recorded after 18 hrs at 37° C. (inoculum ca. […] cells).

Escherichia coli TEM 1 = assay: as above; format: cell-based; settings: 10 μg, Difco Nutrient Agar, 18 hrs at 37° C.
Description: as §3

[5] = test system: Escherichia coli DSM 1103; assay: as above; format: cell-based; settings: 10 μg, Difco Nutrient Agar, 18 hrs at 37° C.
Description: as §3

Enterococcus = assay: as above; format: cell-based; settings: 10 μg, Difco Nutrient Agar, 18 hrs at 37° C.
Description: as §3

[6] = test system: Enterobacter cloacae DSM 30054; assay: as above; format: cell-based; settings: 10 μg, Difco Nutrient Agar, 18 hrs at 37° C.
Description: as §3

Staph. aureus resistant = assay: as above; format: cell-based; settings: 10 μg, Difco Nutrient Agar, 18 hrs at 37° C.
Description: as §3

Staph. aureus Innsbruck = assay: as above; format: cell-based; settings: 10 μg, Difco Nutrient Agar, 18 hrs at 37° C.
Description: as §3

Staph. aureus DSM 1104 = assay: as above; format: cell-based; settings: 10 μg, Difco Nutrient Agar, 18 hrs at 37° C.
Description: as §3

Sacharomyces cerevisiae = assay: Cytotoxicity, agar diffusion method; format: cell-based; settings: 1.0 mg, yeast and mold agar, 16 hrs at 30° C.
Description: Sterile PP dishes of 8.5 cm diameter containing 10 ml of yeast and mold agar were used. Cytotoxicity was recorded after a 16 hrs incubation period at 30° C. (inoculum approx. 10^5 cells).

[7] = test system: Pseudomonas aer. DSM 1117; assay: In vitro antibacterial activity, plate test (inhibition diameter); format: cell-based, Pseudomonas aeruginosa; settings: 10 μg, Difco Nutrient Agar, 18 hrs at 37° C.
Description: as §3

[8] = test system: Pseudomonas aer. resistant; assay: as above; format: cell-based, Pseudomonas aeruginosa; settings: 10 μg, Difco Nutrient Agar, 18 hrs at 37° C.
Description: as §3

T1 sequence (P05364 21-381): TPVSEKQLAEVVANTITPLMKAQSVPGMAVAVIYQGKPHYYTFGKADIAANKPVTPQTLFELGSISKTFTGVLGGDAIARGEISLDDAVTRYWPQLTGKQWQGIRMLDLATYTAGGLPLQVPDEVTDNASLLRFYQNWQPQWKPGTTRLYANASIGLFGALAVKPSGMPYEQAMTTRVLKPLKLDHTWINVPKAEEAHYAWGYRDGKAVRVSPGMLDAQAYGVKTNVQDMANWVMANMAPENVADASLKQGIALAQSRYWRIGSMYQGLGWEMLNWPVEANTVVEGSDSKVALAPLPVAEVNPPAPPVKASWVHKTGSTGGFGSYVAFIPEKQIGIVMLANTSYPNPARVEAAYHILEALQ
T2 sequence (P62593 24-286 limits assumed): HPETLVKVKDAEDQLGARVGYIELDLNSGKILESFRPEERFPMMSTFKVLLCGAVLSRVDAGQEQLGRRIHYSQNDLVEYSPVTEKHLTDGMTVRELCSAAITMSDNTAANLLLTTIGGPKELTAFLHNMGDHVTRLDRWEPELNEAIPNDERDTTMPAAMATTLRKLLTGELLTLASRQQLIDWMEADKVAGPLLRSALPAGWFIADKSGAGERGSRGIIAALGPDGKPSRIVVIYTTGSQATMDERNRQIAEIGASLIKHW

Compound | IC50 [1] [µM] | IC50 [2] [µM] | half-life [3] [h] | inhibition diameter (Staph. aureus 25768) [mm] | inhibition diameter (Escherichia coli TEM 1) [mm] | inhibition diameter [5] [mm] | inhibition diameter (Enterococcus) [mm] | inhibition diameter [6] [mm] | inhibition diameter (Staph. aureus resistant) [mm] | inhibition diameter (Staph. aureus Innsbruck) [mm] | inhibition diameter (Staph. aureus DSM 1104) [mm] | inhibition diameter (cytotoxicity) (Sacharomyces cerevisiae) [mm] | inhibition diameter [7] [mm] | inhibition diameter [8] [mm] | further results
CC(C)(O/N=C(\C(=O)N[C@@H]1C(=O)N2C(C(=O)[O-])=C(C[n+]3ccccc3)CS[C@H]12)c1csc(N)n1)C(=O)O [CAZ, ceftazidime] |  |  |  |  |  |  |  |  |  |  |  |  |  |  | MIC (E. cloacae EB 131): > 64 µg/mL; MIC (E. coli EC 225): 64 µg/mL; MIC (E. coli EC 228): 16 µg/mL; MIC (K. pneumoniae KL 141): > 64 µg/mL; MIC (K. pneumoniae KL 140): > 64 µg/mL; MIC (E. coli EC 227): > 64 µg/mL
COCSC1=C(C(=O)O)N2C(=O)[C@H]([C@@H](C)O)[C@H]2[C@H]1C [Ia, Potassium (4R,5S,6S)-6-((1′R)-hydroxyethyl)-3-(methoxymethylthio)-4-methyl-7-oxo-1-azabicyclo[3.2.0]hept-2-ene-2-carboxylate] | 0.004 | 0.2 | 50 |  |  |  |  |  |  |  |  |  |  |  | concentration at 10 min ([4]; plasma): 5600 ng/mL; half-life ([4]; serum, 25 mg/kg, read-out: Approximative serum half-life): 0.417 h
CC(O)C1C(=O)N2C(C(=O)O)=C(SCOCCN)C(C)C12 (centres unmarked) [Ib] | 0.0085 | 0.55 | 50 | 28 | 33 | 30 | 21 | 26 | 35 | 9 | 39 | 0 | 27 | 17 | 
CC(O)C1C(=O)N2C(C(=O)O)=C(SCOCCNC=N)C(C)C12 [Ic, (4R,5S,6S)-3-((2-(Formimidoylamino)ethoxv)methylthio)-((1′R)-hydroxyethyl)-4-methyl-7-oxo-1-azabicyclo[3.2.0]hept-2-ene-2-carboxylic acid] |  |  | 35 | 26 | 33 | 30 | 21 | 25 | 35 | 8 | 39 |  | 25 | 13 | 
CC(O)C1C(=O)N2C(C(=O)O)=C(SCOC(C)(C)CN)C(C)C12 [Id, (4R,5S,6S)-3-((2-amino-1,1-dimethylethoxy)methylthio)-6-((1′R)-hydroxyethyl)-4-methyl-7-oxo-1-azabicyclo[3.2.0]hept-2-ene-2-carboxylic acid] |  |  | 50 |  |  |  |  |  |  |  |  |  |  |  | 
CC(=O)NCSC1=C(C(=O)O)N2C(=O)[C@H]([C@@H](C)O)[C@H]2[C@H]1C [Ie, Potassium (4R,5S,6S)-3-(acetamidomethylthio)-((1′R)-hydroxyethyl)-4-methyl-7-oxo-1-azabicyclo[3.2.0]hept-2-ene-2-carboxylate] | 0.006 | 0.3 | 40 | 27 | 34 | 32 | 18 | 27 | 32 |  | 36 | 0 | 16 |  | 
CC(O)C1C(=O)N2C(C(=O)O)=C(SCNC(=O)CN)C(C)C12 [If, (4R,5S,6S)-3-((2-Aminoacetamido)methylthio-6-((1′R)-hydroxyethyl)-4-methyl-7-oxo-1-azabicyclo[3.2.0]hept-2-ene-2-carboxylic acid] |  |  | 16 | 25 | 33 | 27 | 20 | 23 | 30 | 12 | 33 | 0 | 18 | 14 | 
CCN1CCN(CSC2=C(C(=O)[O-])N3C(=O)[C@H]([C@@H](C)O)[C@H]3[C@H]2C)C(=O)C1=O.[K+] [Ig, Potassium (4R,5S,6S)-3-((2,3-dioxo-4-ethyl-piperazinyl)methylthio)-6-((1′R)-hydroxyethyl)-4-methyl-7-oxo-1-azabicyclo[3.2.0]hept-2-ene-2-carboxylate] |  |  |  |  |  |  |  |  |  |  |  |  |  |  | half-life of hydrolysis ([3]; buffer, pH 7.4): 42 h

Source: patent US20010031749A1, “Novel C-2 S/O-and S/N formaldehyde Acetal Derivatives of Carbapenem-3-carboxylic acids and their use as antibiotics and beta-lactamase inhibitors” (priority 1998, published 2001)
